Test results reported in patent US20060281690A1, “Crystalline (2E,4S)-4-[(N-{[(2R)-1-isopropylpiperidin-2-yI]-carbonyl}-3-methyl-L-valyl)(methyl)amino]-2,5-dimethylhex-2-enoic acid and its pharmaceutical uses” (Eisai Co. Ltd., priority 2005, published 2006).
“And” between values parts separate entries of the source, which are not always exact repeats. Equal entries are not always repeated.

What was measured:
[1] = Solid state stability studies, 21 days; assay type: physicochemical; settings: for Total impurities: HPLC area-%
Procedure: The solid-state stability of crystalline E7974-form M1—unsolvated was evaluated for 21 days. […] In addition, a different peak appeared at only a 0.12% level for sample stored at 40° C. and exposed to 75% relative humidity.

[2] = Hygroscopicity studies (vapor sorption isotherm); assay type: physicochemical
[3] = tested on: several cell lines, including human lung carcinoma, human colon carcinoma and human melanoma; settings: several cell lines incl. human lung carcinoma; cited from earlier work
[4] = 25° C., visible light (6.8 million lux-hours), 21 d

C/C(=C\[C@H](C(C)C)N(C)C(=O)[C@@H](NC(=O)[C@H]1CCCCN1C(C)C)C(C)(C)C)C(=O)O [Crystalline E7974-form M1—unsolvated, (2E,4S)-4-[(N-{[(2R)-1-isopropylpiperidin-2-yl]carbonyl}-3-methyl-L-valyl)(methyl)amino]-2,5-dimethylhex-2-enoic acid]
Total impurities ([1]; 25° C., light shield, 21 d): 0.76% | Wt/Wt ([1]; 25° C., light shield, 21 d, control: −20° C. light shielded sample): 100.3% | Wt/Wt [1, 4]: 99.9% | Total impurities [1, 4]: 0.87% | Wt/Wt ([1]; 40° C., 75% RH, 21 d): 102.2% | Total impurities ([1]; 40° C., 75% RH, 21 d): 0.89% | level of a different new impurity peak ([1]; 40° C., 75% relative humidity, 21 days): 0.12% | Wt/Wt ([1]; 60° C., light shield, 21 d): 100.9% | Total impurities ([1]; 60° C., light shield, 21 d): 0.78% | level of new impurity peaks ([1]; 21 days at 25° C. and visible light, two new peaks): 0.05% and 0.09% | Total impurities ([1]; Initial, sum of all impurities >0.05%): 0.72% | changes in the impurity profile ([1]; shielded from light, stored at 25 and 60° C., 21 days): No significant changes | Total impurities ([1]; −20° C., light shield, 21 d): 0.72% | increase in weight ([2]; at 70% RH, 25° C., FIG. 2): 1.9% | deliquescence ([2]; high relative humidity (% RH), FIG. 1): deliquesces at high relative humidity | water adsorption reversibility ([2]; up to 70% RH): reversible up to 70% RH | hygroscopicity classification ([2]; up to 70% RH, criterion: hygroscopic = not less than 3.0% water increase at 75% RH for a week): non-hygroscopic | hygroscopicity ([2]; vapor sorption isotherm, FIG. 1): slightly hygroscopic

CN[C@H](C(=O)N[C@H](C(=O)N(C)[C@H](/C=C(\C)C(=O)O)C(C)C)C(C)(C)C)C(C)(C)c1cn(C)c2ccccc12 [Hemiasterlin]
antitumor activity [3]: exhibits antitumor activity
